pIC50: −log10 of the molar value.
Molecular target: human ALK5 (Homo sapiens (Human), UniProt P36897)
Test: ADP-GLO Kinases assay, inhibition of ALK5 kinase activity
Type: biochemical
Settings: Table 12; compounds classified in term of potency; ATP at Km, 25° C.; read-out: ALK5 IC50
Method: The enzymatic activity of compounds of the present invention was monitored measuring the formation of ADP using the ADP-GLO Kinases assay. Following the incubation of the purified enzyme, a substrate and ATP, the produced ADP was converted into ATP, which in turn was converted into light by Ultra-Glo Luciferase. The luminescent signal positively correlated with ADP amount and kinase activity. Briefly, the kinase reaction was performed by incubating 2.6 nM of the purified, commercially available human ALK5 (recombinant TGF 31 N-term GST-tagged, 80-end), a final concentration of TGFβ1 peptide 94.5 μM (Promega, T36-58) and ultra-pure ATP (Promega V915B). The ATP concentration was set at the Km value (concentration of substrate which permits the enzyme to achieve half maximal velocity (Vmax)) of ALK5 (5 μM). All reactions/incubations were performed at 25° C. Compound and ALK5 kinase were mixed and incubated for 15 mins. Reactions were initiated by addition of ATP at a final concentration in the assay of […]. After an incubation of 150 min, the reaction was stopped, and ADP production detected with ADP-Glo kit according to manufacturer's indications. The assay was performed in 384-well format and was validated using a selection of reference compounds that was tested in 11 point concentration-response curve.
Compounds of the examples C1 and C2 were tested in the same in vitro assay described above.

human ALK5, sequence (P36897 80-503 limits assumed): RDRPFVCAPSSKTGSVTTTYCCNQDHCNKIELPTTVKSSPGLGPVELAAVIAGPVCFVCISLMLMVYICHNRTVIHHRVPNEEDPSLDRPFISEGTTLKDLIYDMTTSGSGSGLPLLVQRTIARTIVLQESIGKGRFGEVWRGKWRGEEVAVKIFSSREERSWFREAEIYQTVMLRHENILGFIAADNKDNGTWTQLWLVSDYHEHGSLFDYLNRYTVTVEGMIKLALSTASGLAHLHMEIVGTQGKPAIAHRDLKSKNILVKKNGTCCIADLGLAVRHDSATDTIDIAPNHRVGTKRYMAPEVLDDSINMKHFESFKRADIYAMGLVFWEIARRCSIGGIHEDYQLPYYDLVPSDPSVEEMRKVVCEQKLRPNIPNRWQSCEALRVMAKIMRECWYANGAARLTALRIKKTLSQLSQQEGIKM

A pIC50 of 8.00 to 8.30 was found for `Cc1cccc(-c2cc(-c3cnc4[nH]ncc4c3)c3c(n2)NCCO3)n1` [Example 35, 2-methyl-6-(8-{1H-pyrazolo[3,4-b]pyridin-5-yl}-2H,3H,4H-pyrido[3,2-b][1,4]oxazin-6-yl)pyridine] in this work.

A pIC50 of 8.30 to 9.00 was found for `Nc1cncc(-c2cc(-c3cc(Cl)ccc3F)nc3c2OCCN3)c1` [Example 5, 5-[6-(5-chloro-2-fluorophenyl)-2H,3H,4H-pyrido[3,2-b][1,4]oxazin-8-yl]pyridin-3-amine] in this work.

A pIC50 of 8.30 to 9.00 was found for `CN(C)CCOC(=O)c1cncc(-c2cc(-c3cc(Cl)ccc3F)nc3c2OCCN3)c1` [Example 24, 2-(dimethylamino)ethyl 5-[6-(5-chloro-2-fluorophenyl)-2H,3H,4H-pyrido[3,2-b][1,4]oxazin-8-yl]pyridine-3-carboxylate] in this work.

A pIC50 of no less than 9.00 was found for `Fc1ccc(Cl)cc1-c1cc(-c2cnc3[nH]ncc3c2)c2c(n1)NCCO2` [Example 10, 6-(5-chloro-2-fluorophenyl)-8-{1H-pyrazolo[3,4-b]pyridin-5-yl}-2H,3H,4H-pyrido[3,2-b][1,4]oxazine] in this work.

A pIC50 of 8.30 to 9.00 was found for `Fc1ccc(Cl)cc1-c1cc(-c2cncc(OC3CCOC3)c2)c2c(n1)NCCO2` (stereo not drawn) [Example 36, 3-[6-(5-chloro-2-fluorophenyl)-2H,3H,4H-pyrido[3,2-b][1,4]oxazin-8-yl]-5-(oxolan-3-yloxy)pyridine] in this work.

A pIC50 of no less than 9.00 was found for `CNCCC(=O)Nc1cncc(-c2cc(-c3cc(Cl)ccc3F)nc3c2OCCN3)c1` [Example 22, N-{5-[6-(5-chloro-2-fluorophenyl)-2H,3H,4H-pyrido[3,2-b][1,4]oxazin-8-yl]pyridin-3-yl}-3-(methylamino)propanamide] in this work.

A pIC50 of 8.30 to 9.00 was found for `O=C(CCN1CCOCC1)Nc1cncc(-c2cc(-c3cc(Cl)ccc3F)nc3c2OCCN3)c1` [Example 9, N-{5-[6-(5-chloro-2-fluorophenyl)-2H,3H,4H-pyrido[3,2-b][1,4]oxazin-8-yl]pyridin-3-yl}-3-(morpholin-4-yl)propanamide] in this work.

A pIC50 of 8.00 to 8.30 was found for `O=C(NCCN1CCCC1)c1cncc(-c2cc(-c3cc(Cl)ccc3F)nc3c2OCCN3)c1` [Example 26, 5-[6-(5-chloro-2-fluorophenyl)-2H,3H,4H-pyrido[3,2-b][1,4]oxazin-8-yl]-N-[2-(pyrrolidin-1-yl)ethyl]pyridine-3-carboxamide] in this work.

A pIC50 of 8.30 to 9.00 was found for `CNCCCNC(=O)c1cncc(-c2cc(-c3cc(Cl)ccc3F)nc3c2OCCN3)c1` [Example 32, 5-[6-(5-chloro-2-fluorophenyl)-2H,3H,4H-pyrido[3,2-b][1,4]oxazin-8-yl]-N-[3-(methylamino)propyl]pyridine-3-carboxamide] in this work.

A pIC50 of 8.00 to 8.30 was found for `COC(=O)CN(C)CCC(=O)Nc1cncc(-c2cc(-c3cc(Cl)ccc3F)nc3c2OCCN3)c1` [Example 48, Methyl 2-{[2-({5-[6-(5-chloro-2-fluorophenyl)-2H,3H,4H-pyrido[3,2-b][1,4]oxazin-8-yl]pyridin-3-yl}carbamoyl)ethyl](methyl)amino}acetate] in this work.

A pIC50 of 8.30 to 9.00 was found for `O=C(NCCCN1CCNCC1)c1cncc(-c2cc(-c3cc(Cl)ccc3F)nc3c2OCCN3)c1` [Example 28, 5-[6-(5-chloro-2-fluorophenyl)-2H,3H,4H-pyrido[3,2-b][1,4]oxazin-8-yl]-N-[3-(piperazin-1-yl)propyl]pyridine-3-carboxamide] in this work.

A pIC50 of 8.00 to 8.30 was found for `CN1CCN(CCC(=O)Nc2cncc(-c3cc(-c4cc(Cl)ccc4F)nc4c3OCCN4)c2)CC1=O` [Example 46, N-{5-[6-(5-chloro-2-fluorophenyl)-2H,3H,4H-pyrido[3,2-b][1,4]oxazin-8-yl]pyridin-3-yl}-3-(4-methyl-3-oxopiperazin-1-yl)propanamide] in this work.

A pIC50 of 8.00 to 8.30 was found for `Fc1ccc(Cl)cc1-c1cc(-c2cncc(OCC3CCCO3)c2)c2c(n1)NCCO2` (stereo not drawn) [Example 34, 3-[6-(5-chloro-2-fluorophenyl)-2H,3H,4H-pyrido[3,2-b][1,4]oxazin-8-yl]-5-[(oxolan-2-yl)methoxy]pyridine] in this work.

A pIC50 of 8.30 to 9.00 was found for `CNCCNC(=O)c1cncc(-c2cc(-c3cc(Cl)ccc3F)nc3c2OCCN3)c1` [Example 23, 5-[6-(5-chloro-2-fluorophenyl)-2H,3H,4H-pyrido[3,2-b][1,4]oxazin-8-yl]-N-[2-(methylamino)ethyl]pyridine-3-carboxamide] in this work.

A pIC50 of 8.30 to 9.00 was found for `O=C(CCCN1CCNCC1)Nc1cncc(-c2cc(-c3cc(Cl)ccc3F)nc3c2OCCN3)c1` [Example 33, N-{5-[6-(5-chloro-2-fluorophenyl)-2H,3H,4H-pyrido[3,2-b][1,4]oxazin-8-yl]pyridin-3-yl}-4-(piperazin-1-yl)butanamide] in this work.

A pIC50 of 8.30 to 9.00 was found for `Cc1csc(-c2cc(-c3cncc4ccccc34)c3c(n2)NCCO3)n1` [Example 4, 4-[6-(4-methyl-1,3-thiazol-2-yl)-2H,3H,4H-pyrido[3,2-b][1,4]oxazin-8-yl]isoquinoline] in this work.

A pIC50 of 8.30 to 9.00 was found for `O=C(OC1CC1)c1cncc(-c2cc(-c3cc(Cl)ccc3F)nc3c2OCCN3)c1` [Example 40, Cyclopropyl 5-[6-(5-chloro-2-fluorophenyl)-2H,3H,4H-pyrido[3,2-b][1,4]oxazin-8-yl]pyridine-3-carboxylate] in this work.

A pIC50 of 8.00 to 8.30 was found for `Fc1ccc(Cl)cc1-c1cc(-c2cccnc2)c2c(n1)NCCO2` [Example 1, 3-[6-(5-chloro-2-fluorophenyl)-2H,3H,4H-pyrido[3,2-b][1,4]oxazin-8-yl]pyridine] in this work.
